pEC50: −log10 of the molar value. Activity calls are given as the source filed them. No cut-off for these calls is given here.
Experiments:
[1] = Fraction unbound in C57BL/6 mouse plasma; type: ADME, cell-free
[2] = Oral bioavailability in rat; type: ADME, organism-based; conditions: in vivo
[3] = Half life in rat; type: ADME; conditions: in vivo
Hexokinase-4 = target: T1, Hexokinase-4 (Homo sapiens, UniProt P35557); test: Activation of recombinant human glucokinase assessed as conversion of D-glucose to D-glucose-6-phosphate in presence of 10 mM glucose by G6PDH coupled spectrophotometric assay
T1 sequence (P35557 whole entry): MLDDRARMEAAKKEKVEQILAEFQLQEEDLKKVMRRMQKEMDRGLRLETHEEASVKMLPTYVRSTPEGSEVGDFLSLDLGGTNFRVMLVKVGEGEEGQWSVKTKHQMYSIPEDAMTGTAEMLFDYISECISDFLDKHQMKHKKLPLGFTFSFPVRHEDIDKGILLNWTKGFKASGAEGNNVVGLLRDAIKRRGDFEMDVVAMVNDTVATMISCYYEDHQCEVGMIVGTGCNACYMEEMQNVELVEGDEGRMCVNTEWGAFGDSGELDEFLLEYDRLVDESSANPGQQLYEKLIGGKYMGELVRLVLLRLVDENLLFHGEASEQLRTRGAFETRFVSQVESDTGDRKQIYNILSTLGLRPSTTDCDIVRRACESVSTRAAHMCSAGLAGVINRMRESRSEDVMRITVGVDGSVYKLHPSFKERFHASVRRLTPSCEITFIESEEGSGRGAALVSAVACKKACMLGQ

[4] = Clearance in rat; type: ADME; conditions: in vivo
[5] = Apparent permeability of the compound; type: physicochemical; conditions: not told
[6] = Mean residence time in rat; type: ADME; conditions: in vivo
[7] = Ratio of drug level in HFD-fed C57BL/6 mouse liver to plasma at 10 mg/kg, po measured 4 hrs post dose; type: ADME, organism-based
[8] = Total drug level in HFD-fed C57BL/6 mouse plasma at 30 mg/kg, po measured 4 hrs post dose; type: ADME, organism-based
[9] = Ratio of drug level in HFD-fed C57BL/6 mouse liver to plasma at 30 mg/kg, po measured 4 hrs post dose; type: ADME, organism-based
[10] = Total drug level in HFD-fed C57BL/6 mouse plasma at 10 mg/kg, po measured 4 hrs post dose; type: ADME, organism-based
[11] = Total drug level in HFD-fed C57BL/6 mouse liver at 30 mg/kg, po measured 4 hrs post dose; type: ADME, organism-based; conditions: read-out: Drug uptake
[12] = Total drug level in HFD-fed C57BL/6 mouse plasma at 3 mg/kg, po measured 4 hrs post dose; type: ADME, organism-based
[13] = Total drug level in HFD-fed C57BL/6 mouse pancreas at 30 mg/kg, po measured 4 hrs post dose; type: ADME, organism-based; conditions: read-out: Drug uptake
[14] = Total drug level in HFD-fed C57BL/6 mouse pancreas at 3 mg/kg, po measured 4 hrs post dose; type: ADME, organism-based; conditions: read-out: Drug uptake
[15] = Ratio of drug level in HFD-fed C57BL/6 mouse liver to plasma at 3 mg/kg, po measured 4 hrs post dose; type: ADME, organism-based
[16] = Total drug level in HFD-fed C57BL/6 mouse liver at 10 mg/kg, po measured 4 hrs post dose; type: ADME, organism-based; conditions: read-out: Drug uptake
Mus musculus [17] = test: Toxicity in HFD-fed C57BL/6 mouse assessed as increase in plasma insulin level at 30 mg/kg, po; type: organism-based; conditions: in vivo
Mus musculus [18] = test: Antidiabetic activity in HFD-fed C57BL/6 mouse assessed as decrease in blood glucose level at 10 mg/kg, po; type: functional, organism-based
[19] = Ratio of drug level in HFD-fed C57BL/6 mouse pancreas to plasma at 3 mg/kg, po measured 4 hrs post dose; type: ADME, organism-based
[20] = Ratio of drug level in HFD-fed C57BL/6 mouse pancreas to plasma at 10 mg/kg, po measured 4 hrs post dose; type: ADME, organism-based
Mus musculus [21] = test: Toxicity in HFD-fed C57BL/6 mouse assessed as increase in plasma insulin level at 10 mg/kg, po; type: organism-based; conditions: in vivo
Mus musculus [22] = test: Antidiabetic activity in HFD-fed C57BL/6 mouse assessed as decrease in blood glucose level at 30 mg/kg, po; type: functional, organism-based
[23] = Ratio of drug level in HFD-fed C57BL/6 mouse liver to pancreas at 30 mg/kg, po measured 4 hrs post dose; type: ADME, organism-based; conditions: in vivo
[24] = Total drug level in HFD-fed C57BL/6 mouse liver at 3 mg/kg, po measured 4 hrs post dose; type: ADME, organism-based; conditions: read-out: Drug uptake
[25] = Total drug level in HFD-fed C57BL/6 mouse pancreas at 10 mg/kg, po measured 4 hrs post dose; type: ADME, organism-based; conditions: read-out: Drug uptake
[26] = Ratio of drug level in HFD-fed C57BL/6 mouse liver to pancreas at 3 mg/kg, po measured 4 hrs post dose; type: ADME, organism-based; conditions: in vivo
[27] = Ratio of drug level in HFD-fed C57BL/6 mouse liver to pancreas at 10 mg/kg, po measured 4 hrs post dose; type: ADME, organism-based; conditions: in vivo
[28] = Ratio of drug level in HFD-fed C57BL/6 mouse pancreas to plasma at 30 mg/kg, po measured 4 hrs post dose; type: ADME, organism-based
[29] = Ratio of drug level in HFD-fed C57BL/6 mouse liver to pancreas at 30 mg/kg, ip measured 4 hrs post dose; type: ADME, organism-based; conditions: in vivo
[30] = Ratio of drug level in HFD-fed C57BL/6 mouse liver to plasma at 30 mg/kg, ip measured 4 hrs post dose; type: ADME, organism-based
[31] = Oral bioavailability in mouse; type: ADME, organism-based; conditions: in vivo
[32] = Ratio of drug level in HFD-fed C57BL/6 mouse pancreas to plasma at 30 mg/kg, ip measured 4 hrs post dose; type: ADME, organism-based
Mus musculus [33] = test: Antidiabetic activity in HFD-fed C57BL/6 mouse assessed as decrease in plasma insulin level at 30 mg/kg, ip; type: functional, organism-based
[34] = Total drug level in HFD-fed C57BL/6 mouse liver at 30 mg/kg, ip measured 4 hrs post dose; type: ADME, organism-based; conditions: read-out: Drug uptake
Mus musculus [35] = test: Antidiabetic activity in HFD-fed C57BL/6 mouse assessed as decrease in blood glucose level at 10 to 30 mg/kg, ip; type: functional, organism-based
[36] = Total drug level in HFD-fed C57BL/6 mouse plasma at 30 mg/kg, ip measured 4 hrs post dose; type: ADME, organism-based
[37] = Total drug level in HFD-fed C57BL/6 mouse pancreas at 30 mg/kg, ip measured 4 hrs post dose; type: ADME, organism-based; conditions: read-out: Drug uptake
Mus musculus [38] = test: Toxicity in HFD-fed C57BL/6 mouse assessed as increase in plasma insulin level at 10 mg/kg, ip; type: organism-based; conditions: in vivo

COc1ccc(Sc2ccc(Sc3ccccn3)nc2C(=O)Nc2ncc(SCC(=O)O)s2)cc1
fraction unbound [1]: 0.003
bioavailability [2]: 57%
half-life [3]: 126 min
pEC50 (Hexokinase-4): 7.85
clearance [4]: 28 mL/min/kg
Papp [5]: 26 ×10⁻⁶ cm/s
MRT [6]: 45.6 min

COc1ccc(Sc2ccc(Sc3ccccn3)nc2C(=O)Nc2ncc(CCC(=O)O)s2)cc1
pEC50 (Hexokinase-4): 7.16

COc1ccc(Sc2ccc(Sc3ccccn3)nc2C(=O)Nc2nc(CC(=O)O)cs2)cc1
pEC50 (Hexokinase-4): 7.31

O=C(O)Cc1nc(NC(=O)c2nc(Sc3ccccn3)ccc2Sc2ccc(F)cc2)sc1Cl
Kp at 4 h [7]: 12.4
concentration at 4 h [8]: 19.6 µM
Kp at 4 h [9]: 6.7
fraction unbound [1]: 0.049
concentration at 4 h [10]: 4.5 µM
concentration at 4 h [11]: 127 µM
concentration at 4 h [12]: 620 nM
concentration at 4 h [13]: 2100 nM
concentration at 4 h [14]: 74 nM
Kp at 4 h [15]: 17.7
concentration at 4 h [16]: 51.5 µM
Activity (Mus musculus [17]): Toxic
bioavailability [2]: 25%
Activity (Mus musculus [18]): Active
half-life [3]: 234 min
Kp at 4 h [19]: 0.13
Kp at 4 h [20]: 0.1
pEC50 (Hexokinase-4): 8.02
Activity (Mus musculus [21]): Non-Toxic
Activity (Mus musculus [22]): Active
clearance [4]: 50 mL/min/kg
Ratio [23]: 70
concentration at 4 h [24]: 10.4 µM
Papp [5]: 25 ×10⁻⁶ cm/s
concentration at 4 h [25]: 0.47 µM
Ratio [26]: 159
Ratio [27]: 127 to 128
MRT [6]: 84 min
Kp at 4 h [28]: 0.11

COc1ccc(Sc2ccc(Sc3nncn3C)nc2C(=O)Nc2ncc(SCC(=O)O)s2)cc1
Ratio [29]: 113
Kp at 4 h [30]: 14.9
bioavailability [31]: 3%
Kp at 4 h [32]: 0.16
Activity (Mus musculus [33]): Active
concentration at 4 h [34]: 452 µM
Activity (Mus musculus [35]): Active
concentration at 4 h [36]: 31 µM
concentration at 4 h [37]: 4 µM
bioavailability [2]: 1 to 1.2%
half-life [3]: 120 min
pEC50 (Hexokinase-4): 7.29
clearance [4]: 115 mL/min/kg
Papp [5]: 2 ×10⁻⁶ cm/s
Activity (Mus musculus [38]): Non-Toxic
MRT [6]: 38.4 min

Cc1ccc(Sc2ccc(Sc3nnc[nH]3)nc2C(=O)Nc2ncns2)cn1
Kp at 4 h [7]: 4.5
concentration at 4 h [10]: 18.5 µM
concentration at 4 h [16]: 77.7 µM
bioavailability [2]: 100%
Activity (Mus musculus [18]): Active
half-life [3]: 162 min
Kp at 4 h [20]: 0.5
pEC50 (Hexokinase-4): 7.56
Activity (Mus musculus [21]): Toxic
clearance [4]: 1.9 mL/min/kg
Papp [5]: 21 ×10⁻⁶ cm/s
concentration at 4 h [25]: 8.7 µM
Ratio [27]: 8.9

COc1ccc(Sc2ccc(Sc3ccccn3)nc2C(=O)Nc2nc(CC(=O)O)c(Cl)s2)cc1
pEC50 (Hexokinase-4): 8.24
Papp [5]: 22 ×10⁻⁶ cm/s

From ChEMBL document CHEMBL4014286, “Discovery of orally active hepatoselective glucokinase activators for treatment of Type II Diabetes Mellitus” (Bioorg Med Chem Lett, 2017)
